In article PMC5772982 (Molecular cell, 2017) one finds Kd data, which are given here for one molecule.

A word on the Kd: it is a measure of binding affinity in units of concentration.

SMILES strings stand for the structures.

The target of the experiment is T1, PYL1 (Arabidopsis thaliana, UniProt Q8VZS8, S119A).
T1 sequence (Q8VZS8 2-221 S119A): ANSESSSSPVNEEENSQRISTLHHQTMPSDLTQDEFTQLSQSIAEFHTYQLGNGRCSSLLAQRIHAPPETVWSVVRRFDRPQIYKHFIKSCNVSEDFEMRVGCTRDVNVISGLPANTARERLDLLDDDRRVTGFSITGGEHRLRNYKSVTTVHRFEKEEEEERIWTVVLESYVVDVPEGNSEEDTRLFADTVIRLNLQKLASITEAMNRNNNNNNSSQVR
The experiment can be described thus: microscale thermophoresis. The format is binding. In general terms: In MST a laser heats a spot of the sample, and binding alters the fluorescence response.

For `CC1=CC(=O)CC(C)(C)[C@@]1(O)/C=C/C(C)=C\C(=O)O` [Abscisic Acid], the affinity, expressed as Kd, was 219 µM.
